The record followed here is patent US6794396B2, “Substituted pyridines useful for inhibiting cholesteryl ester transfer protein activity” (Pharmacia Corporation, priority 1998, dated 2004).

Molecules are shown by their SMILES. Values joined by “and” are separate entries in the source; they are usually repeats but may differ in a detail not shown here. Equal values may be shown once.

For the first test, the target named is T1, CETP (Homo sapiens, UniProt P11597).
T1 construct: made in house; host or cells: CHO cells (serum-free conditioned medium)
T1 sequence (P11597 18-493): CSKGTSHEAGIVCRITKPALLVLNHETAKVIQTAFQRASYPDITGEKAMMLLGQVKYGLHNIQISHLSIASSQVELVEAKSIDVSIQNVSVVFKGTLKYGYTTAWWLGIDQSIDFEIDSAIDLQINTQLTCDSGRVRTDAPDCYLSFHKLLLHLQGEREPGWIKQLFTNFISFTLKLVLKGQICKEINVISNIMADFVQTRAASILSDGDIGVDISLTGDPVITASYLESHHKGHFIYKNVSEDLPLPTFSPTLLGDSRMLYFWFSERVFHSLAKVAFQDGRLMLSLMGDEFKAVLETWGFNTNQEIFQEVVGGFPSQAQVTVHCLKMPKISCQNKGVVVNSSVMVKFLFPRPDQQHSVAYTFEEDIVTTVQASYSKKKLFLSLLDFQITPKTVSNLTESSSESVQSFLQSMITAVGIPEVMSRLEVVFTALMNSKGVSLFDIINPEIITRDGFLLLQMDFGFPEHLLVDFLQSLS
In words: CETP activity in vitro: transfer of [3H]CE from HDL donor to LDL acceptor particles. The test is classed as biochemical. To be noted: 10 μm. Put shortly:
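CETP from conditioned medium of CETP-transfected CHO cells incubated with [3H]CE-labelled HDL donor and LDL acceptor, pH 7.4 Tris buffer with NaCl, EDTA and 1% BSA, 2 h at 37 °C. LDL precipitated with dextran sulfate/MgCl2, filtered, and transferred radioactivity counted; IC50 reported.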
As for `COC(=O)c1c(C(F)F)nc(C(F)(F)F)c(SC(C)=O)c1CC(C)C` [Compound 149, Methyl 5-(Acetylthio)-2-(difluoromethyl)-4-(2-methylpropyl)-6-(trifluoromethyl)-3-pyridinecarboxylate], the “% transfer at 10 μm” value is 31^D %.

Staying with this test, now noted: 50% inhibition of [3H]CE transfer from HDL to LDL, 2 hours at 37° C.; read-out: IC50(μm).
As to `COC(=O)c1c(C(F)F)nc(C(F)(F)F)c(COC(=O)c2ccccc2)c1CC1CC1` [Compound 41, Methyl 5-(Benzoyloxymethyl)-2-(difluoromethyl)4-(cyclopropylmethyl)-6-(trifluoromethyl)-3-pyridinecarboxylate], the half-maximal inhibitory concentration (IC50) came to 50 µM. For the compound `COC(=O)c1c(C(F)F)nc(C(F)(F)F)c(C(=O)Oc2cccc(OC)c2)c1CC(C)C` [Compound 165, 3-Methyl 5-(3-Methoxyphenyl) 2-(Difluoromethyl)-4-(2-methylpropyl)-6-(trifluoromethyl)-3,5-pyridicarboxylate], the IC50 is > 100 µM and 70 µM. On to `COC(=O)c1c(C(F)F)nc(C(F)(F)F)c(N=C(OC)SC)c1CC(C)C` [Compound 27, Methyl 2-(Difluoromethyl)-5-{[methoxy (methylthio)methylene]amino)-4-(2-methylpropyl)-6-(trifluoromethyl)-3-pyridinecarboxylate], for which the concentration for half-maximal inhibition (IC50) was determined as 40 µM. Regarding `CCOC(=O)c1c(Sc2ccccc2)cc(C(F)(F)F)nc1C(F)(F)F` [Compound 23], the IC50 came out at 40 µM. Same read-out and setting: the same measure for `COC(=O)c1c(C(F)F)nc(C(F)(F)F)c(C(=O)Oc2ccc(C(C)C)cc2Cc2ccc(F)cc2)c1CC(C)C` [Compound 170, 3-Methyl 5-[2-(4-Fluorobenzyl)-4-isopropylphenyl]2-(Difluoromethyl)-4-(2-methylpropyl)-6-(trifluoromethyl)-3,5-pyridicarboxylate]: 40 µM. Regarding `COC(=O)c1c(C(F)F)nc(C(F)(F)F)c(CSc2ccc(C(C)(C)C)cc2)c1CC(C)C` [Compound 3, Methyl 5-(4-t-Butylphenylthiomethyl)-2-(difluoromethyl)-4-(2-methylpropyl)-6-(trifluoromethyl)-3-pyridinecarboxylate], the IC50 came out at 9 µM.

Staying with this test, now noted: 2 h; read-out: % Transfer @ 100 μm.
In the case of `Cc1c(C(F)(F)F)ncc(C(=O)O)c1Sc1ccc(C(C)C)cc1` [Compound 126, 4-(4-Isopropylphenylthio)-5-methyl-6-(trifluoromethyl)-3-pyridinecarboxylic Acid], the remaining activity at 100 µM amounted to 90%. For `COC(=O)c1c(OC(C)C)ccnc1C(F)(F)F` [Compound 127, Methyl 4-(1-Methylethoxy)-2-(trifluoromethyl)-3-pyridinecarboxylate], the remaining activity at 100 µM was 90%.

As to `COC(=O)c1c(C(F)F)nc(C(F)(F)F)c(C2CC(C)N(O)C2)c1CC1CC1` (centres unmarked) [Compound 107, Methyl 4-(Cyclopropylmethyl)-2-(difluoromethyl)-5-(1-hydroxy-5-methyl-3-pyrrolidinyl)-6-(trifluoromethyl)-3-pyridinecarboxylate], the remaining activity at 100 µM came to 75%.

The same test, now with this note: @ 100 μm; footnotes A and B of Table 6.
`COC(=O)c1c(C(F)F)nc(C(F)(F)F)c(CSc2nnnn2C)c1CC(C)C` [Compound 189, Methyl 5-[(1-Methyltetrazol-5-yl)thiomethyl]-2-(difluoromethyl)-4-(2-methylpropyl)-6-(trifluoromethyl)-3-pyridinecarboxylate]: the CE transferred entry is “^A90% CE transferred @ 100 μm”.

The test is the same for the next values; noted with them: IC50(μm), 50% inhibition of [3H]CE transfer from HDL to LDL, 2 hours at 37° C.
On to `COC(=O)c1c(C(F)F)nc(C(F)(F)F)c(C2SCCS2)c1CC(C)C` [Compound 61], for which inhibition was half-maximal at 60 µM (IC50).

As for `CCSC(C)c1c(C(F)(F)F)nc(C(F)F)c(C(=O)OC)c1CC1CC1` (centres unmarked) [Compound 21], the IC50 turned out to be 40 µM. The compound `COC(=O)c1c(C(F)F)nc(C(F)(F)F)c(-n2cccc2)c1C1CCC1` [Compound 70, Methyl 2-(Difluoromethyl)-4-cyclobutyl-5-(1-pyrrolyl)-6-(trifluoromethyl)-3-pyridinecarboxylate] yielded a concentration for half-maximal inhibition (IC50) of 65 µM. `COC(=O)c1c(C(F)(F)F)nc(C(F)(F)F)c(C2=NCCS2)c1CC(C)C` [Compound 12, Methyl 2,6-Bis(trifluoromethyl)-5-(4,5-dihydro-2-thiazoly)-4-(2-methylpropyl)-3-pyridinecarboxylate]: the IC50 was determined as 25 µM. `CC(C)Cc1c(C(=O)OC(C)(C)C)c(C(F)F)nc(C(F)(F)F)c1C(=O)OC(C)(C)C` [Compound 9, Di-t-Butyl 2-(difluoromethyl)-4-(2-methylpropyl)-6-(trifluoromethyl)-3,5-pyridinedicarboxylate] displayed an IC50 of 20 µM. `CCOC(=O)c1c(C(F)F)nc(C(F)(F)F)c(C(=O)OCC)c1SC(C)(C)C` [Compound 39, Diethyl 2-(Difluoromethyl)-4-(t-butylthio)-6-(trifluoromethyl)-3,5-pyridine-dicarboxylate] returned a 50% inhibitory concentration (IC50) of 50 µM.

The same test, now with this note: IC50, Table 7, compounds of formula T-7.
`COC(=O)c1c(C(F)F)nc(C(F)(F)F)c(SCc2cccc(OC)c2)c1CC(C)C` [Compound 231]: the IC50 was 50 µM. The compound `COC(=O)c1c(C(F)F)nc(C(F)(F)F)c(SCc2cccc(Br)c2)c1CC(C)C` [Compound 229] returned an IC50 of 50 µM.

The test is the same for the next values; noted with them: Table 6, compounds of formula T-6; read-out: IC50.
Take `COC(=O)c1c(C(F)F)nc(C(F)(F)F)c(CSc2nnnn2C)c1CC(C)C` [Compound 189, Methyl 5-[(1-Methyltetrazol-5-yl)thiomethyl]-2-(difluoromethyl)-4-(2-methylpropyl)-6-(trifluoromethyl)-3-pyridinecarboxylate]: the IC50 was over 100 µM. `COC(=O)c1c(C(F)F)nc(C(F)(F)F)c(CSc2nc3ccc(C)cc3[nH]2)c1CC(C)C` [Compound 209, Methyl 5-[(5-Methylbenzimidazol-2-yl)thiomethyl]-2-(difluoromethyl)-4-(2-methylpropyl)-6-(trifluoromethyl)-3-pyridinecarboxylate]: the IC50 was determined as 10 µM. Same read-out and setting: for `COC(=O)c1c(C(F)F)nc(C(F)(F)F)c(CSc2ccc(Br)cc2OC(F)(F)F)c1CC(C)C` [Compound 206, Methyl 5-[(4-Bromo-2-(trifluoromethoxy)phenyl)thiomethyl]-2-(difluoromethyl)-4-(2-methylpropyl)-6-(trifluoromethyl)-3-pyridinecarboxylate] the value was 50 µM; for `COC(=O)c1c(C(F)F)nc(C(F)(F)F)c(CSc2nc3ccc([N+](=O)[O-])cc3[nH]2)c1CC(C)C` [Compound 190, Methyl 5-[(5-Nitrobenzimidazol-2-yl)thiomethyl]-2-(difluoromethyl)-4-(2-methylpropyl)-6-(trifluoromethyl)-3-pyridinecarboxylate], 25 µM.

Take `COC(=O)c1c(C(F)F)nc(C(F)(F)F)c(CSc2ccccc2OC)c1CC(C)C` [Compound 208, Methyl 5-[(2-Methoxyphenyl)thiomethyl]-2-(difluoromethyl)-4-(2-methylpropyl)-6-(trifluoromethyl)-3-pyridinecarboxylate]: the 50% inhibitory concentration (IC50) is 60 µM.

Consider `COC(=O)c1c(C(F)F)nc(C(F)(F)F)c(CSc2nc3ccccc3s2)c1CC(C)C` [Compound 212, Methyl 5-[(Benzothiazol-2-yl)thiomethyl]-2-(difluoromethyl)-4-(2-methylpropyl)-6-(trifluoromethyl)-3-pyridinecarboxylate], for which the IC50 is 15 µM.

The test is the same for the next values; noted with them: Table 7, compounds of formula T-7; read-out: IC50.
In the case of `COC(=O)c1c(C(F)F)nc(C(F)(F)F)c(SCc2ccc(C(F)(F)F)cc2C(F)(F)F)c1CC(C)C` [Compound 234], the IC50 was 20 µM. As to `COC(=O)c1c(C(F)F)nc(C(F)(F)F)c(SCc2ccc(Cl)cc2Cl)c1CC(C)C` [Compound 237], the half-maximal inhibitory concentration (IC50) turned out to be 30 µM. For `COC(=O)c1c(C(F)F)nc(C(F)(F)F)c(SCc2cc(Cl)cc(Cl)c2)c1CC(C)C` [Compound 243], the IC50 worked out at 50 µM. Turning to `COC(=O)c1c(C(F)F)nc(C(F)(F)F)c(SCc2ccc(-c3ccccc3)cc2)c1CC(C)C` [Compound 225], the IC50 was determined as 10 µM. As for `COC(=O)c1c(C(F)F)nc(C(F)(F)F)c(SCc2cccc([N+](=O)[O-])c2)c1CC(C)C` [Compound 230], the concentration for half-maximal inhibition (IC50) worked out at 50 µM.

As to `COC(=O)c1c(C(F)F)nc(C(F)(F)F)c(SCc2ccc(OCc3ccccc3)cc2)c1CC(C)C` [Compound 224], the IC50 worked out at 25 µM. On to `COC(=O)c1c(C(F)F)nc(C(F)(F)F)c(SCc2ccccc2[N+](=O)[O-])c1CC(C)C` [Compound 223], for which the IC50 worked out at 50 µM. As to `COC(=O)c1c(C(F)F)nc(C(F)(F)F)c(SCc2ccccc2)c1CC(C)C` [Compound 219], the IC50 worked out at 25 µM.

The same test, now with this note: Table 8; read-out: IC50.
On to `O=Cc1c(C(F)F)nc(C(F)(F)F)c(C(F)c2ccc(C(F)(F)F)cc2)c1-c1ccc(F)cc1` (centres unmarked) [Compound 251], for which the IC50 came out at 7 µM. Turning to `OCc1c(C(F)(F)F)nc(C(F)F)c(C(O)c2ccc3ccccc3c2)c1-c1ccccc1` (centres unmarked) [Compound 280], the IC50 is over 100 µM. For `OCc1c(C(F)(F)F)nc(C(F)F)c(C(F)c2ccc(C(F)(F)F)cc2)c1-c1ccc(F)cc1` (centres unmarked) [Compound 249], the IC50 is 5 µM.

As for `OCc1c(C(F)(F)F)nc(C(F)F)c(C(F)c2ccc(C(F)(F)F)cc2)c1-c1ccc(F)cc1` (centres unmarked) [Compound 253], the IC50 was determined as 19 µM. `CCOC(=O)c1c(C(F)(F)F)nc(C(F)F)c(C(F)c2ccc3ccccc3c2)c1-c1ccccc1` (centres unmarked) [Compound 268]: the IC50 was determined as 70 µM.
